These molecules were tested on MAPK phosphorylation in PANC-1 pancreatic cancer cell line (assay: MAPK cell-based phosphorylation assay (cell-direct ELISA, EGF stimulation)). Details: Homo sapiens, * = tested at 10 μM.
In short: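 Cell-direct ELISA measured phospho-MAPK, with fluorescence read at 595 nm from AmpliFlu Red. Before fixation, PANC-1 cells starved overnight received 6 hours of compound (30 μM single dose or serial dilutions, 0.3% DMSO, 37° C), followed by 1.5 ng/ml EGF for 15 min.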
For `Oc1nc(-c2ccccn2)nc2c(CC3CCNC3)csc12` (stereo not shown) [drawing 1286], the inhibition at 10 µM was 1 to 25%. `O=c1[nH]c(-c2ccccn2)nc2c([C@@H]3O[C@H](CO)[C@@H](O)[C@H]3O)csc12` [drawing 1287] gave an inhibition at 10 µM of 1 to 25%. Molecule `Cn1cnc(-c2nc(O)c3c(-c4ccccc4)c(-c4ccncc4)sc3n2)c1` [drawing 1288] has an inhibition at 10 µM of 25 to 50%. For `COCCNc1nc(-c2ccccn2)nc(-c2cccc(OCCN(C)C)c2)c1Oc1ccccc1` [drawing 1289], the inhibition at 10 µM was 25 to 50%. `COCCNc1nc(-c2cn(C)cn2)nc2sc(-c3ccncc3)c(-c3ccccc3)c12` [drawing 1290] showed an inhibition at 10 µM of 0%. `COc1nc(-c2cn(C)cn2)nc2sc(-c3ccncc3)c(-c3ccccc3)c12` [drawing 1291] was tested, and the inhibition at 10 µM was 1 to 25%. `OCC1(c2ccc(-c3nc(-c4ccccn4)nc(-c4ccc(C5(CO)CC5)cc4)c3Oc3ccccc3)cc2)CC1` [drawing 1292] gave an inhibition at 10 µM of 51 to 75%. `COc1ccc(COC[C@H]2O[C@@H](c3csc4c(=O)[nH]c(-c5ccccn5)nc34)[C@H](O)[C@@H]2O)cc1` [drawing 1293] was tested, and the inhibition at 10 µM was 0%. Work on `OCC1(c2ccc(-c3nc(-c4ccccn4)nc(O)c3Oc3ccccc3)cc2)CC1` [drawing 1294] yielded an inhibition at 10 µM of 1 to 25%. Molecule `COCCNc1nc(-c2nccn2C)nc2sc(-c3ccccc3)c(-c3ccccc3)c12` [drawing 1295] has an inhibition at 10 µM of 76 to 100%. `Cn1ccnc1-c1nc(O)c2c(-c3ccccc3)c(-c3ccccc3)sc2n1` [drawing 1296] showed an inhibition at 10 µM of 0%. `Cn1cnc(-c2nc(O)c3c(-c4ccccc4)c(-c4ccc(CNC(=O)OC(C)(C)C)cc4)sc3n2)c1` [drawing 1297] showed an inhibition at 10 µM of 0%. In the case of `COCCNc1nc(-c2ccccn2)nc2c1c(-c1ccccc1)nn2-c1ccccn1` [drawing 1298], the inhibition at 10 µM is reported as 1 to 25%. Work on `Oc1nc(-c2ccccn2)nc2c1c(-c1ccccc1)nn2-c1ccccn1` [drawing 1299] yielded an inhibition at 10 µM of 0%. Molecule `COc1nc(-c2ccccn2)nc2c1c(-c1ccccc1)nn2-c1ccccn1` [drawing 1300] has an inhibition at 10 µM of 25 to 50%. For `COCC(C)Nc1nc(-c2ccccn2)nc2sc(-c3ccncc3)c(-c3ccccc3)c12` (stereo not shown) [drawing 1301], the inhibition at 10 µM was 0%. Work on `Nc1nc(O)c2sc(-c3cccc(C(=O)NC4CCNC4=O)c3)cc2n1` (stereo not shown) [drawing 1302] yielded an inhibition at 10 µM of 0%. In the case of `Nc1nc(O)c2sc(-c3cccc(C(=O)N4CCC(O)C4)c3)cc2n1` (stereo not shown) [drawing 1303], the inhibition at 10 µM is reported as 0%. `NC(=O)C1CCCN1C(=O)c1cccc(-c2cc3nc(N)nc(O)c3s2)c1` (stereo not shown) [drawing 1304] was tested, and the inhibition at 10 µM was 1 to 25%. For `Nc1nc(O)c2sc(-c3cccc(C(=O)NCc4ncc[nH]4)c3)cc2n1` [drawing 1305], the inhibition at 10 µM was 0%. Work on `Nc1nc(O)c2sc(-c3cccc(C(=O)NCc4cccc(O)n4)c3)cc2n1` [drawing 1306] yielded an inhibition at 10 µM of 0%. In the case of `COC(=O)c1nc(-c2ccccn2)nc(O)c1O` [drawing 1307], the inhibition at 10 µM is reported as 0%. `Oc1nc(-c2ccccn2)nc2c(-c3ccccc3)c(-c3ccncc3)sc12` [drawing 1308] was tested, and the inhibition at 10 µM was 0%. `Cn1cnc(-c2nc(O)c3sc(-c4ccncc4)c(-c4ccccc4)c3n2)c1` [drawing 1309] gave an inhibition at 10 µM of 0%. `COCC(C)Nc1nc(-c2ccccn2)nc(C(=O)NCCCc2c[nH]cn2)c1Oc1ccccc1` (stereo not shown) [drawing 1310] gave an inhibition at 10 µM of 1 to 25%. `Nc1nc(-c2ccccn2)nc(C(=O)NCCc2ccncc2)c1Oc1ccccc1` [drawing 1311] showed an inhibition at 10 µM of 1 to 25%. Work on `COc1nc(-c2ccccn2)nc(Oc2cccc(C(F)(F)F)c2)c1OC` [drawing 1312] yielded an inhibition at 10 µM of 0%. `Oc1nc(-c2ccccn2)nc2c(Br)c(-c3ccccc3)sc12` [drawing 1313] was tested, and the inhibition at 10 µM was 0%. For `CC(C)(C)c1sc2c(O)nc(-c3ccccn3)nc2c1Br` [drawing 1314], the inhibition at 10 µM was 1 to 25%. Work on `Cc1ccc(-c2cc3nc(-c4ccccn4)nc(O)c3s2)cc1` [drawing 1315] yielded an inhibition at 10 µM of 76 to 100%. For `Oc1nc(-c2ccccn2)nc2cc(-c3ccccc3Cl)sc12` [drawing 1316], the inhibition at 10 µM was 1 to 25%. `COc1c(O)nc(-c2ccccn2)nc1Oc1cccc(C(F)(F)F)c1` [drawing 1317] was tested, and the inhibition at 10 µM was 1 to 25%. With `Oc1nc(-c2ccccn2)nc(Oc2cccc(C(F)(F)F)c2)c1O` [drawing 1318] the inhibition at 10 µM was 1 to 25%. For `Oc1nc(-c2ccccn2)nc2cc(-c3ccc(-c4ccccc4)cc3)sc12` [drawing 1319], the inhibition at 10 µM was 25 to 50%. `Cc1ccc(-c2csc3c(O)nc(-c4ccccn4)nc23)cc1` [drawing 1320] was tested, and the inhibition at 10 µM was 1 to 25%. Work on `Oc1nc(-c2ccccn2)nc2cc(-c3ccncc3)sc12` [drawing 1321] yielded an inhibition at 10 µM of 0%. For `Oc1nc(-c2ccccn2)nc2cc(-c3ccccc3)sc12` [drawing 1322], the inhibition at 10 µM was 25 to 50%. In the case of `COc1ccc(-c2cc3nc(-c4ccccn4)nc(O)c3s2)cc1` [drawing 1323], the inhibition at 10 µM is reported as 1 to 25%. With `Oc1nc(-c2ccccn2)nc2cc(-c3cccc(Br)c3)sc12` [drawing 1324] the inhibition at 10 µM was 25 to 50%. For `COc1nc(-c2ccccn2)nc(Oc2cccc(C(F)(F)F)c2)c1O` [drawing 1325], the inhibition at 10 µM was 1 to 25%. With `COCCN(C)c1nc(-c2nccn2C)nc2sc(-c3ccccc3)c(-c3ccccc3)c12` [drawing 1326] the inhibition at 10 µM was 76 to 100%. In the case of `CC(C)OCCNc1nc(-c2nccn2C)nc2sc(-c3ccccc3)c(-c3ccccc3)c12` [drawing 1327], the inhibition at 10 µM is reported as 76 to 100%. Work on `Cn1ccnc1-c1nc(NCCOC(F)(F)F)c2c(-c3ccccc3)c(-c3ccccc3)sc2n1` [drawing 1328] yielded an inhibition at 10 µM of 76 to 100%. Molecule `CC(O)CNc1nc(-c2nccn2C)nc2sc(-c3ccccc3)c(-c3ccccc3)c12` (stereo not shown) [drawing 1329] has an inhibition at 10 µM of 1 to 25%. With `COCCCNc1nc(-c2nccn2C)nc2sc(-c3ccccc3)c(-c3ccccc3)c12` [drawing 1330] the inhibition at 10 µM was 76 to 100%. With `COC1CCN(c2nc(-c3nccn3C)nc3sc(-c4ccccc4)c(-c4ccccc4)c23)C1` (stereo not shown) [drawing 1331] the inhibition at 10 µM was 76 to 100%. In the case of `CCOCCOc1nc(-c2nccn2C)nc2sc(-c3ccccc3)c(-c3ccccc3)c12` [drawing 1332], the inhibition at 10 µM is reported as 0%. With `CCN(CC)CCOc1nc(-c2nccn2C)nc2sc(-c3ccccc3)c(-c3ccccc3)c12` [drawing 1333] the inhibition at 10 µM was 76 to 100%. `COCCNc1nc(-c2ccncn2)nc2sc(-c3ccccc3)c(-c3ccccc3)c12` [drawing 1334] showed an inhibition at 10 µM of 1 to 25%. With `CCOCCNc1nc(-c2nccn2C)nc2sc(-c3ccccc3)c(-c3ccccc3)c12` [drawing 1335] the inhibition at 10 µM was 76 to 100%. `Cn1ccnc1-c1nc(NCCOC2CC2)c2c(-c3ccccc3)c(-c3ccccc3)sc2n1` [drawing 1336] gave an inhibition at 10 µM of 76 to 100%. `COCC(C)Nc1nc(-c2nccn2C)nc2sc(-c3ccccc3)c(-c3ccccc3)c12` (stereo not shown) [drawing 1337] gave an inhibition at 10 µM of 76 to 100%. `CC(CO)Nc1nc(-c2nccn2C)nc2sc(-c3ccccc3)c(-c3ccccc3)c12` (stereo not shown) [drawing 1338] was tested, and the inhibition at 10 µM was 25 to 50%. `Cn1ccnc1-c1nc(NCCCO)c2c(-c3ccccc3)c(-c3ccccc3)sc2n1` [drawing 1339] showed an inhibition at 10 µM of 1 to 25%. `COCCNc1nc(-c2nccn2C)nc2sc(-c3ccccc3)c(-c3ccccc3Cl)c12` [drawing 1340] was tested, and the inhibition at 10 µM was 76 to 100%. With `COCCNc1nc(-c2nccn2C)nc2sc(-c3ccccc3Cl)c(-c3ccccc3)c12` [drawing 1341] the inhibition at 10 µM was 76 to 100%. Work on `COCCNc1nc(-c2nccn2C)nc2sc(-c3ccncc3)c(-c3ccccc3)c12` [drawing 1342] yielded an inhibition at 10 µM of 0%. `COCCNc1nc(-c2cn(C)cn2)nc2sc(-c3ccccc3)c(-c3ccccc3)c12` [drawing 1343] was tested, and the inhibition at 10 µM was 76 to 100%. In the case of `COCCNc1nc(-c2nccn2C)nc2sc(C)c(-c3ccccc3)c12` [drawing 1344], the inhibition at 10 µM is reported as 51 to 75%. `COCCNc1nc(-c2cn(C)cn2)nc2sc(C)c(-c3ccccc3)c12` [drawing 1345] showed an inhibition at 10 µM of 25 to 50%. `COCCNc1nc(-c2nccn2C)nc2sc(-c3cccc(OC)c3)c(-c3ccccc3)c12` [drawing 1346] showed an inhibition at 10 µM of 76 to 100%. For `CC(C)COc1ccc(-c2c(-c3ccccc3)sc3c(O)nc(-c4nccn4C)nc23)cn1` [drawing 1347], the inhibition at 10 µM was 51 to 75%. Molecule `Cn1ccnc1-c1nc(O)c2sc(-c3ccccc3)c(-c3ccccc3)c2n1` [drawing 1348] has an inhibition at 10 µM of 51 to 75%. Molecule `COCCNc1nc(-c2nccn2C)nc2sc(-c3ccccc3)c(-c3ccc(OC)cc3)c12` [drawing 1349] has an inhibition at 10 µM of 76 to 100%. For `COCCNc1nc(-c2nccn2C)nc2sc(C3CCOCC3)c(-c3ccccc3)c12` [drawing 1350], the inhibition at 10 µM was 51 to 75%. For `COCCNc1nc(-c2cccc(N)n2)nc2sc(-c3ccccc3)c(-c3ccccc3)c12` [drawing 1351], the inhibition at 10 µM was 51 to 75%. `Cn1ccnc1-c1nc(O)c2sc(-c3ccccc3)c(-c3cccc(C(F)(F)F)c3)c2n1` [drawing 1352] was tested, and the inhibition at 10 µM was 0%. With `COc1ccc(-c2c(-c3ccccc3)sc3c(O)nc(-c4nccn4C)nc23)cn1` [drawing 1353] the inhibition at 10 µM was 51 to 75%. `Cc1sc2c(O)nc(-c3nccn3C)nc2c1-c1ccccc1` [drawing 1354] was tested, and the inhibition at 10 µM was 0%. `Cn1ccnc1-c1nc(O)c2sc(-c3ccccc3)c(-c3ccccc3Cl)c2n1` [drawing 1355] showed an inhibition at 10 µM of 51 to 75%. In the case of `COCCNc1nc(-c2nccn2C)nc2sc(-c3ccccc3)c(-c3ccncc3)c12` [drawing 1356], the inhibition at 10 µM is reported as 25 to 50%. Molecule `COCCNc1nc(-c2nccn2C)nc2sc(-c3ccc(OC)cc3)c(-c3ccccc3)c12` [drawing 1357] has an inhibition at 10 µM of 51 to 75%. For `Cn1ccnc1-c1nc(O)c2scc(-c3cccc(C(F)(F)F)c3)c2n1` [drawing 1358], the inhibition at 10 µM was 25 to 50%. Molecule `Cc1sc2c(O)nc(-c3nccn3C)nc2c1-c1cccc(C(F)(F)F)c1` [drawing 1359] has an inhibition at 10 µM of 1 to 25%. `Cc1sc2c(O)nc(-c3nccn3C)nc2c1-c1ccc(OCC(C)C)nc1` [drawing 1360] gave an inhibition at 10 µM of 25 to 50%. Work on `COc1ccc(-c2c(C)sc3c(O)nc(-c4nccn4C)nc23)cn1` [drawing 1361] yielded an inhibition at 10 µM of 25 to 50%. `Cc1sc2c(O)nc(-c3nccn3C)nc2c1-c1ccccc1Cl` [drawing 1362] showed an inhibition at 10 µM of 1 to 25%. With `Cn1cnc(-c2nc(O)c3scc(-c4cccc(C(F)(F)F)c4)c3n2)c1` [drawing 1364] the inhibition at 10 µM was 1 to 25%. `CC(C)COc1ccc(-c2csc3c(O)nc(-c4cn(C)cn4)nc23)cn1` [drawing 1365] showed an inhibition at 10 µM of 1 to 25%.

Source: patent US10940139B2, “Compounds that interact with the Ras superfamily for the treatment of cancers, inflammatory diseases, rasopathies, and fibrotic disease” (Shy Therapeutics LLC, priority 2017, dated 2021)
